We go through 38 compounds from patent publication US12414952B2 (Merck Sharp & Dohme LLC, priority 2018, dated 2025).

Assay [1] has as its target human A2a adenosine receptor (Homo sapiens (Human), UniProt P29274). In words: A2a binding affinity using radioligand binding, Method (A). The following applies: Method (A): [3H]SCH58261 filtration binding. In outline:
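Membranes from HEK293 or CHO cells expressing human A2a were preincubated with compound for 15–30 min at room temperature. [3H]SCH58261 was then added (4 nM working dilution) in 50 mM Tris pH 7.4, 10 mM MgCl2, 0.005% Tween20 for 60 min at room temperature. Bound radioactivity after filtration was normalised to total and non-specific binding, and IC50 came from 4-parameter logistic fits.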

For assay [2], the target named is human A2b adenosine receptor (Homo sapiens (Human), UniProt P29275). In words: A2b binding affinity, radioligand filtration binding assay. Conditions: tritiated proprietary A2b antagonist, HEK293 membranes. Here is the method:
Measurement of A2b Binding Affinity
The reported affinity of the compounds of the invention for the human A2b adenosine receptor was determined experimentally using a radioligand filtration binding assay. This assay measures the amount of binding of a tritiated proprietary A2b receptor antagonist, in the presence and absence of a compound of the invention, to membranes made from HEK293 cells recombinantly expressing the human A2b adenosine receptor (Perkin Elmer, Cat. No. ES-013-C).
The filter plate was incubated for at least 1 h at 55° C. and allowed to dry. The bottom of the filter plate was then sealed with backing tape. […] The plates were then incubated for at least 20 min, and then the amount of radioactivity remaining in each well was determined using a TopCount® (Perkin Elmer) scintillation counter. After normalization to total and non-specific binding, the percent effect at each compound concentration was calculated. The plot of percent effect versus the log of compound concentration was analyzed electronically using a 4-parameter logistic fit based on the Levenberg-Marquardt algorithm to generate IC50 values.

human A2a adenosine receptor, sequence (P29274 whole entry): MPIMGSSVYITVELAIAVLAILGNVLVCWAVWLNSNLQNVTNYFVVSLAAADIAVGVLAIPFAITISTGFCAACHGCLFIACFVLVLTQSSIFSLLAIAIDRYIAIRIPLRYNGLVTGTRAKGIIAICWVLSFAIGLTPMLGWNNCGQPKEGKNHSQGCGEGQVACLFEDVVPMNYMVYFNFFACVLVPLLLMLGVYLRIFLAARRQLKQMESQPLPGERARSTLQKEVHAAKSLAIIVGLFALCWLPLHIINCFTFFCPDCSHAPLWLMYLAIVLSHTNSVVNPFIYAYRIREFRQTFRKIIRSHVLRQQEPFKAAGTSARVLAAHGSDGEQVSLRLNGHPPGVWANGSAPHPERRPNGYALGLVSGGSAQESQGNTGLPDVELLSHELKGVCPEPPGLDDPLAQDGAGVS
human A2b adenosine receptor, sequence (P29275 whole entry): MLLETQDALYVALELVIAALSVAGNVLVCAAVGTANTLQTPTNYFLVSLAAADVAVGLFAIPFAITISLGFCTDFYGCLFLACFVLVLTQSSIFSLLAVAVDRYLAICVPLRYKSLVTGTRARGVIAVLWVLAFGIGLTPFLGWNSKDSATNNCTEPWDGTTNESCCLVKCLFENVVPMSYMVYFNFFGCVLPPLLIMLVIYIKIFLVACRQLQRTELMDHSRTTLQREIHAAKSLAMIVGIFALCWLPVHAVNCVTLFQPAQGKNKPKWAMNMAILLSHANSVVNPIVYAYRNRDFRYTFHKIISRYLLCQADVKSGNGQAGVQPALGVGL

Regarding `Cc1c(-c2cncc(Cl)c2)nc(N)c2nc(Cc3ccccc3)nn12` [Example 3.32], the IC50 in assay [1] is 0.0131 µM; in assay [2], 0.147 µM.
In the case of `Cc1c(-c2ccc(F)c(Cl)c2)nc(N)c2nc(Cc3ccccc3)nn12` [Example 3.33], the values for the IC50 in assay [1] and in assay [2] were 0.0272 µM and 0.117 µM, respectively.
Consider `Cc1c(-c2cc(F)c(F)cc2F)nc(N)c2nc(Cc3ccccc3)nn12` [Example 3.34], for which the IC50 in assay [1] came to 0.0322 µM; in assay [2], 0.0958 µM.
`Cc1ccc(F)cc1-c1nc(N)c2nc(Cc3ccccc3)nn2c1C` [Example 3.35]: the IC50 in assay [1] was determined as 0.0656 µM; in assay [2], 0.7 µM.
In the same order, the values of `Cc1c(-c2cc(F)c(F)c(F)c2)nc(N)c2nc(Cc3ccccc3)nn12` [Example 3.36] are 0.0765 µM and 0.154 µM.
`Cc1ccc(-c2nc(N)c3nc(Cc4ccccc4)nn3c2C)cc1F` [Example 3.37]: the IC50 in assay [1] was 1 µM; in assay [2] it was 3.71 µM.
In the same order, the values of `Cc1c(-c2cc(F)ccc2Cl)nc(N)c2nc(Cc3ccccc3)nn12` [Example 3.38] are 0.0976 µM and 0.0857 µM.
For the compound `Cc1c(F)cccc1-c1nc(N)c2nc(Cc3ccccc3)nn2c1C` [Example 3.39], the IC50 in assay [1] was determined as 0.0985 µM; in assay [2], 1.02 µM.
For `Cc1c(-c2ccc(F)c(F)c2F)nc(N)c2nc(Cc3ccccc3)nn12` [Example 3.40], the results for the IC50 in assay [1] and in assay [2] were 0.28 µM and 0.315 µM, respectively.
Consider `Cc1c(-c2cccc(F)c2Cl)nc(N)c2nc(Cc3ccccc3)nn12` [Example 3.41], for which the values for the IC50 in assay [1] and in assay [2] were 0.289 µM and 0.747 µM, respectively.
Regarding `Cc1c(-c2ccc(C#N)c(F)c2)nc(N)c2nc(Cc3ccccc3)nn12` [Example 3.42], the IC50 came to 0.499 µM in assay [1] and 1.73 µM in assay [2].
As to `COc1ccc(F)cc1-c1nc(N)c2nc(Cc3ccccc3)nn2c1C` [Example 3.43], the IC50 was 0.611 µM in assay [1] and 2.52 µM in assay [2].
Taken in the same sequence, the figures for `Cc1c(-c2ccn(C)n2)nc(N)c2nc(Cc3ccccc3)nn12` [Example 3.46] were 0.0044 µM and 0.0826 µM.
Take `Cc1cccnc1Cc1nc2c(N)nc(-c3cc(F)ccc3F)c(C)n2n1` [Example 4.3, 6-(2,5-difluorophenyl)-5-methyl-2-((3-methylpyridin-2-yl)methyl)-[1,2,4]triazolo[1,5-a]pyrazin-8-amine]: the IC50 in assay [1] was 0.0099 µM; in assay [2], 0.0473 µM.
Consider `Cc1c(-c2cc(F)ccc2F)nc(N)c2nc(Cc3ccc(F)cn3)nn12` [Example 4.4], for which the IC50 in assay [1] was 0.0228 µM; in assay [2], 0.026 µM.
`Cc1c(-c2cc(F)ccc2F)nc(N)c2nc(Cc3cccc4c3ncn4CC(F)F)nn12` [Example 4.5]: the results for the IC50 in assay [1] and in assay [2] were 0.0238 µM and 0.0318 µM, respectively.
`Cc1c(-c2ncco2)nc(N)n2nc(Cc3ccc4c(c3)ncn4CC(F)F)nc12` [Example 4.7]: the IC50 turned out to be 0.0353 µM in assay [1] and 0.0076 µM in assay [2].
As to `Cc1c(-c2cc(F)ccc2F)nc(N)c2nc(Cc3ncccc3F)nn12` [Example 4.8], the IC50 in assay [1] is 0.0187 µM; in assay [2] it was 0.0093 µM.
Taken in the same sequence, the figures for `Cc1c(-c2ncco2)nc(N)c2nc(Cc3cccc4c3ncn4CC(C)(C)O)nn12` [Example 4.9] were 0.0002 µM and 0.0012 µM.
`Cc1c(-c2ncco2)nc(N)c2nc(Cc3cccc4c3ncn4CC(F)F)nn12` [Example 4.10]: the IC50 in assay [1] turned out to be 0.0007 µM; in assay [2], 0.0065 µM.
As to `Cc1c(-c2ncco2)nc(N)c2nc(Cc3ccc(C(C)(C)O)cn3)nn12` [Example 4.11], the 50% inhibitory concentration (IC50) in assay [1] worked out at 0.0482 µM; in assay [2] it was 0.0665 µM.
`Cc1c(-c2ncco2)nc(N)n2nc(Cc3ccc([C@H]4C[C@@](C)(O)C4)cc3)nc12` [Example 5.2, (1s,3s)-3-(4-((5-amino-8-methyl-7-(oxazol-2-yl)-[1,2,4]triazolo[1,5-c]pyrimidin-2-yl)methyl)phenyl)-1-methylcyclobutanol]: the IC50 in assay [1] came to 0.0025 µM; in assay [2], 0.0016 µM.
As to `Cc1c(-c2ncco2)nc(N)n2nc(Cc3ccc([C@H]4C[C@](C)(O)C4)cc3)nc12` [Example 5.3, (1r,3r)-3-(4-((5-amino-8-methyl-7-(oxazol-2-yl)-[1,2,4]triazolo[1,5-c]pyrimidin-2-yl)methyl)phenyl)-1-methylcyclobutanol], the half-maximal inhibitory concentration (IC50) in assay [1] is 0.0121 µM; in assay [2], 0.0035 µM.
`Cc1c(-c2ncco2)nc(N)n2nc(Cc3ccc(C4(O)CCC4)cc3)nc12` [Example 6.3, 1-(4-((5-amino-8-methyl-7-(oxazol-2-yl)-[1,2,4]triazolo[1,5-c]pyrimidin-2-yl)methyl)phenyl)cyclobutanol]: the IC50 in assay [1] stood at 0.0171 µM; in assay [2], 0.0107 µM.
For the compound `COC1(c2ccc(Cc3nc4c(C)c(-c5ncco5)nc(N)n4n3)cc2)CCC1` [Example 6.4, 2-(4-(1-methoxycyclobutyl)benzyl)-8-methyl-7-(oxazol-2-yl)-[1,2,4]triazolo[1,5-c]pyrimidin-5-amine], the IC50 stood at 0.0049 µM in assay [1] and 0.0057 µM in assay [2].
On to `Cc1c(-c2ncco2)nc(N)n2nc(Cc3ccc(C(C)(C)O)cc3)nc12` [Example 6.5, 2-(4-((5-amino-8-methyl-7-(oxazol-2-yl)-[1,2,4]triazolo[1,5-c]pyrimidin-2-yl)methyl)phenyl)propan-2-ol], for which the IC50 in assay [1] worked out at 0.0387 µM; in assay [2], 0.005 µM.
In the same order, the values of `Cc1c(-c2ncco2)nc(N)n2nc(Cc3cccc(C(C)(C)O)c3)nc12` [Example 6.6, 2-(3-((5-amino-8-methyl-7-(oxazol-2-yl)-[1,2,4]triazolo[1,5-c]pyrimidin-2-yl)methyl)phenyl)propan-2-ol] are 0.0019 µM and 0.243 µM.
For the compound `Cc1c(-c2ncco2)nc(N)c2nc(Cc3ccc(C(C)(C)O)cc3)nn12` [Example 6.7, 2-(4-((8-amino-5-methyl-6-(oxazol-2-yl)-[1,2,4]triazolo[1,5-a]pyrazin-2-yl)methyl)phenyl)propan-2-ol], the IC50 is 0.0157 µM in assay [1] and 0.0301 µM in assay [2].
Consider `Cc1c(-c2ncco2)nc(N)c2nc(Cc3cccc(C(C)(C)O)c3)nn12` [Example 6.8, 2-(3-((8-amino-5-methyl-6-(oxazol-2-yl)-[1,2,4]triazolo[1,5-a]pyrazin-2-yl)methyl)phenyl)propan-2-ol], for which the IC50 in assay [1] was found to be 0.0012 µM; in assay [2], 0.331 µM.
As to `Cc1c(-c2ncco2)nc(N)n2nc(Cc3ccn(C)n3)nc12` [Example 7.6, 8-methyl-2-((1-methyl-1H-pyrazol-3-yl)methyl)-7-(oxazol-2-yl)-[1,2,4]triazolo[1,5-c]pyrimidin-5-amine], the IC50 in assay [1] was determined as 0.0005 µM; in assay [2] it was 0.0026 µM.
In the case of `Cc1cccnc1Cc1nc2c(N)nc(-c3ncco3)c(C)n2n1` [Example 8.3], the figures for the IC50 in assay [1] and in assay [2] were 0.0013 µM and 0.0299 µM, respectively.
For `Cc1c(-c2ncco2)nc(N)c2nc(Cc3ncccc3F)nn12` [Example 8.4], the IC50 in assay [1] was found to be 0.0013 µM; in assay [2], 0.0186 µM.
For `Cc1c(-c2ncco2)nc(N)n2nc(CNCc3ccc(C(F)(F)F)cc3)nc12` [Example 10.2, 8-methyl-7-(oxazol-2-yl)-2-(((4-(trifluoromethyl)benzyl)amino)methyl)-[1,2,4]triazolo[1,5-c]pyrimidin-5-amine], the results for the half-inhibitory concentration (IC50) in assay [1] and in assay [2] were 0.0045 µM and 0.0484 µM, respectively.
Regarding `Cc1c(-c2ncco2)nc(N)n2nc(CN3CCc4cccnc43)nc12` [Example 10.3, 2-((2,3-dihydro-1H-pyrrolo[2,3-b]pyridin-1-yl)methyl)-8-methyl-7-(oxazol-2-yl)-[1,2,4]triazolo[1,5-c]pyrimidin-5-amine], the IC50 in assay [1] came out at 0.0004 µM; in assay [2], 0.0145 µM.
In the same order, the values of `Cc1c(-c2ncco2)nc(N)n2nc(CNCc3ccc(C(F)(F)F)cn3)nc12` [Example 10.4, 8-methyl-7-(oxazol-2-yl)-2-((((5-(trifluoromethyl)pyridin-2-yl)methyl)amino)methyl)-[1,2,4]triazolo[1,5-c]pyrimidin-5-amine] are 0.156 µM and 0.33 µM.
Take `Cc1c(-c2cccc(F)c2)nc(N)n2nc(CNCc3ccc(C(F)(F)F)cc3)nc12` [Example 10.5, 7-(3-fluorophenyl)-8-methyl-2-(((4-(trifluoromethyl)benzyl)amino)methyl)-[1,2,4]triazolo[1,5-c]pyrimidin-5-amine]: the IC50 in assay [1] stood at 0.163 µM; in assay [2], 0.157 µM.
On to `Cc1c(-c2ncco2)nc(N)n2nc(CNCc3ccc(C(C)(C)O)cc3)nc12` [Example 11.2, 2-(4-((((5-amino-8-methyl-7-(oxazol-2-yl)-[1,2,4]triazolo[1,5-c]pyrimidin-2-yl)methyl)amino)methyl)phenyl)propan-2-ol], for which the IC50 came to 0.0011 µM in assay [1] and 0.0626 µM in assay [2].
As for `Cc1c(-c2ncco2)nc(N)n2nc(CNCc3ccc(C(C)(C)O)cn3)nc12` [Example 11.3, 2-(6-((((5-amino-8-methyl-7-(oxazol-2-yl)-[1,2,4]triazolo[1,5-c]pyrimidin-2-yl)methyl)amino)methyl)pyridin-3-yl)propan-2-ol], the values for the IC50 in assay [1] and in assay [2] were 0.0155 µM and 0.0406 µM, respectively.
